Experimental data reported in patent publication US20060183147A1, “Methods of identifying genes which modulate myelination” (Elan Pharmaceuticals, Inc., priority 2005, published 2006).

Legend:
[1] = system: optic nerve oligodendrocytes; assay: In vitro myelination assay: co-culture of retinal ganglion cells and optic nerve oligodendrocytes; format: cell-based, rat
Description: Co-cultures of RGCs and optic nerve oligodendrocytes were prepared and used as follows. Purified oligodendrocytes were plated on PDL/merosin (Chemicon) substrate-coated tissue culture dishes in defined DMEM Sato medium, promoting proliferation for two days. After 2 days, the medium was switched to defined DMEM Sato medium, which contained factors to promote differentiation. Twenty-four hours after the switch to differentiation medium, ADORA1 agonists were added. Retinal ganglion cells were plated 24 hours thereafter, and the medium consisted of 50% astrocyte-conditioned medium (method see above) with DMEM Sato medium mixed with fresh defined Neurobasal™ (Invitrogen) Sato medium, containing B27™ supplement and growth factors (BDNF and CNTF), to promote retinal ganglion cell survival and 0.5% FBS. The FBS was added to help retinal ganglion cell survival. This is because forskolin, which up-regulates cAMP, could not be used when adding any ADORA agonists or antagonists, since these receptors are G-protein-coupled receptors and therefore, regulators of cAMP themselves. Cultures were grown for two weeks, with medium changes occurring every three days.
Optic nerve or cortical oligodendrocytes were purified from postnatal day 2-day 5 old rat pups by immuno-panning with the A2B5 antibody (ATCC). Retinal ganglion cells were purified from 5 day old rats by immunopanning with the Thy1 antibody T11D7.
Purified oligodendrocytes were plated on PDL/merosin substrate-coated tissue culture dishes in defined DMEM Sato medium, promoting proliferation for two days. After 2 days, the medium was switched to defined DMEM Sato medium, containing factors promoting differentiation. Twenty-four hours after the switch to differentiation medium, ADORA1 agonists were added. Retinal ganglion cells were plated 24 hours thereafter, and medium consisted of astrocyte-conditioned medium with DMEM Sato medium mixed with defined Neurobasal™ Sato medium, containing growth factors promoting retinal ganglion cell survival and 0.5% FBS.
Cultures were grown for two weeks, with medium changes occurring every three days. Control co-cultures were devoid of myelin segments, whereas oligodendrocytes co-cultures with ADORA1 agonist contained myelin segments originating from approximately 90% of the oligodendrocytes in these cultures.
To address whether the effect of the adenosine 1 receptor (ADORA1) agonist only affects oligodendrocytes, or also affects retinal ganglion cells (RGCs) to lead to myelination, purified rat optic nerve oligodendrocytes were plated on PEI-pre-coated culture dishes (6-well plates, Falcon BD) in mitogenic medium and cultured for two days. After two days, oligodendrocytes were switched to differentiation medium and the agonist MECA (Sigma) was added at a 200 μM concentration to this culture medium 24 hours later. The agonist was removed by washing the cells at 24, 48 and 72 hours, respectively, after its administration. Oligodendrocytes were subsequently taken off the PEI plates by incubation with Trypsin (535 units/ml) in Earle's Balanced Salt Solution (EBSS; Invitrogen) at 37° C. for 5 minutes, washed with PBS containing 30% FBS (Hyclone) and were plated onto RGCs grown for one week on PDL/merosin substrate. Cultures were fixed for immunohistochemistry two weeks after co-plating the oligodendrocytes with the RGCs. Since the oligodendrocytes were pre-incubated separately with the ADORA1 agonist before they were added to the RGCs, the myelin figures observed in FIG. 6 are due to the switch in the oligodendrocytes themselves from a non-myelinating to a myelinating phenotype.
To address the question of whether it is a permanent or a reversible switch if the oligodendrocytes are cultured without neurons, oligodendrocytes were treated with ADORA1 agonist for 72 hours and kept in culture alone for another 5 days. Cultured oligodendrocytes were then removed from the PEI-coated plate and co-cultured with RGCs grown for one week in culture. […]

[2] = system: rhoA expression in rat optic nerve oligodendrocytes; assay: rhoA expression by Quantitative RT-PCR in MECA-treated oligodendrocytes; format: cell-based
Description: Primers and probes were designed using the Primer Express software from Applied Biosystems. Probes were designed with 6-FAM as fluorophore at the 5′end and TAMRA as quencher at the 3′ end. QRT-PCR reactions were set up as a one-step reaction using 20 ng of total RNA as template, and included 1× Taqman™ buffer, 5 mM MgCl2, 1.5 mM dNTP mix, 300 nM forward and reverse primers, […] Taqman™ probe, 20 units RNase inhibitor, 5 units Multiscribe™ MuLV reverse transcriptase and 2 units AmpliTaq™ Gold DNA polymerase in a 50 microliter reaction. All reagents used were from Applied Biosystems. Reactions were run on a ABI 7500 using the following cycling conditions: “Hold” at 48° C. for 30 minutes, “Hold” at 95 for 10 minutes, “Denature” at 95° C. for 15 seconds, and “Anneal/Extend” at 60° C. for 1 minute. The last two steps were repeated for 40 cycles.
RhoA is a member of the Ras superfamily of small GTPases and functions as a GDP/GTP—regulated binary switch that regulates signal transduction pathways controlling actin cytoskeletal reorganization. […] Expression of rhoA was determined by Quantitative RT-PCR in oligodendrocytes treated with MECA or untreated for various times, as set forth below. […] Quantitative RT-PCR was set up as per standard protocol as a single step reaction. […]

[3] = system: optic nerve oligodendrocytes; assay: Gene expression profiling (Affymetrix Rat genome 230 2.0), control vs 3-day MECA stimulated ON-oligodendrocytes; format: cell-based; settings: p-value <0.05
Text: To identify transient versus long-term gene expression changes, control and 3-day ADORA1 agonist (MECA) stimulated optic nerve oligodendrocytes were compared. As described elsewhere herein, 3 days of ADORA1 stimulation were sufficient to obtain myelin segments in the optic nerve myelination system. RNA samples were generated in triplicate, each replicate generated by pooling RNA from two separate oligodendrocyte preps (one prep from 12 litters of post-natal day 4 SD pups). RNA samples were analyzed for gene expression profiling using the Affymetrix GeneChip™ Rat genome 230 2.0 Array that provides coverage of approximately 30,000 transcripts. RNA was amplified using the MessageAmp II aRNA kit from Ambion to generate sufficient amounts of RNA for hybridization to arrays, as previously described.

[4] = system: cortical oligodendrocytes; assay: Gene expression profiling (Affymetrix Rat 230 2.0), control vs 1-day MECA stimulated cortical oligodendrocytes; format: cell-based
Text: As a second filter to determine which genes were commonly regulated between pure optic nerve and enriched cortical oligodendrocytes, gene expression analysis comparing non-myelinating cortical oligodendrocytes with 1-day MECA induced cortical oligodendrocytes committed to myelination was made. Since cortical oligodendrocyte cell preparations yield larger numbers of cells, determining overlap between 1-day MECA treated ON-oligodendrocytes and 1-day MECA treated cortical oligodendrocytes help determine if use of cortical oligodendrocytes for future experiments to test genes of interest is a feasible option. Cortical oligodendrocytes were isolated from 2 litters of newborn SD rat pups. RNA for replicates were isolated from the cells which were plated on 3 separate 6-well tissue culture plates (approximately 500,000 cells per well) with control and treated cells included in separate wells on each plate. The important caveat to keep in mind when comparing gene expression in cortical oligodendrocytes with ON-oligodendrocytes is that the cortical oligodendrocytes are not a pure cell population. Cortical oligodendrocytes comprise approximately 80% oligodendrocytes and about 20% astrocytes, with some neuronal cells. Total RNA was generated in triplicate and hybridized to Affymetrix GeneChip™ Rat 230 2.0 arrays with approximately 30,000 genes. RNA submitted for analysis was amplified using the MessageAmp II aRNA kit from Ambion to generate sufficient amounts of RNA for hybridization to arrays and to keep sample preparation conditions similar to 1-day control and MECA treated ON-oligodendrocytes set forth elsewhere herein. Table 2 provides a summary of differentially regulated genes from comparison of control and 1-day MECA stimulated cortical oligodendrocytes.

[5] = system: optic nerve oligodendrocytes; assay: Gene expression profiling, control vs 1-day MECA-treated ON-oligodendrocytes; format: cell-based, rat; settings: p-value <0.05, 1.2 fold-change cutoff
Description: Based on the results obtained with rhoA expression, 24 hours was selected as the first time point in a broader gene expression analysis. Total RNA was isolated from control, and MECA-stimulated oligodendrocytes were harvested 24 hours after the addition of MECA. RNA samples were generated in triplicate, each replicate generated by pooling RNA from three separate oligodendrocyte preps (one prep from 12 litters (10 pups each) of post-natal day 5 SD pups). RNA samples were analyzed by gene expression profiling using the Affymetrix GeneChip™ Rat genome 230 2.0 Array that provides coverage of approximately 30,000 transcripts, i.e., the entire transcribed rat genome. RNA submitted was amplified by Expression Analysis using the MessageAmp II aRNA kit from Ambion to generate sufficient amounts of RNA for hybridization to arrays. A2B5 and cells were plated in 6-well plates and allowed to divide for 48 hours. Approximately 500,000 cells were plated per well. Two micrograms of RNA was subsequently used for analysis.
To identify gene expression changes occurring during myelination, total RNA was isolated from control and MECA-stimulated oligodendrocytes 24 hours after the addition of MECA. RNA samples were generated in triplicate, each replicate generated by pooling RNA from three separate oligodendrocyte preps. RNA samples (2 μg/sample) were submitted to Expression Analysis for gene expression profiling using the Affymetrix GeneChip™ Rat genome 230 2.0 Array that provides coverage of approximately 30,000 transcripts. RNA submitted using the MessageAmp II aRNA kit from Ambion to generate sufficient amounts of RNA for hybridization to arrays.

[6] = system: MOG surface expression in optic nerve oligodendrocytes; assay: MOG cell surface label, optic nerve oligodendrocytes; format: cell-based, rat; settings: after 6 days; control oligodendrocytes up-regulated MOG
Description: (§1) Purified rat optic nerve and enriched rat cortical oligodendrocytes were first grown in mitogenic medium and then switched to differentiation medium. Stimulated oligodendrocytes received the ADORA1 agonist, MECA, 24 hours later. Optic nerve oligodendrocytes were assessed 2, 4, and 6 days post MECA treatment, cortical oligodendrocytes, 3, 5, and 7 days post treatment. For the MOG cell surface label, cells were incubated with the anti-MOG antibody (1 μg/ml) for one hour at room temperature in phosphate buffered saline (PBS) containing sodium-pyruvate and glucose (Invitrogen) to ensure survival of cells during this time. Subsequently the cells were fixed, incubated in PBS containing 50% goat serum at RT for 30 minutes and incubated with a secondary antibody (FITC- or Cy3-coupled goat anti-mouse IgG antibody from Jackson Immunoresearch).

[7] = system: MOG surface expression in cortical oligodendrocytes; assay: MOG cell surface label, cortical oligodendrocytes (time course and dose response); format: cell-based, rat
Description: as §1
To determine whether the surface expression of MOG would follow the same time course as that observed for the ADORA1 agonist, MECA, in the optic nerve myelination system, oligodendrocyte-enriched cortical cells were plated on PEI-coated plates in mitogenic medium, containing PDGFAA, and NT3 as factors stimulating proliferation. After 3 days, cells were switched to differentiation medium containing CNTF and NT3. 200 μM MECA was added either the same day or 24 hours later and was incubated on the cells for 24 hours, 48 hours, 72 hours, 4 days, and 7 days continuously. The cells were surface-labeled with an antibody to MOG, after the described incubation. For the ADORA1 agonist dose response experiment, MECA was added at concentrations of 200 μM, 100 μM, 50 μM, 25 μM and 12.5 μM, 24 hours after switching to differentiation medium, and was incubated on the cells continuously. On day 7, cells were surface-labeled with an anti-MOG antibody.

[8] = system: cortical oligodendrocytes; settings: added to the co-cultures; cited from earlier work

CNC(=O)[C@H]1O[C@@H](n2cnc3c(N)ncnc32)[C@H](O)[C@@H]1O [MECA, 5′-N-methylcarboxamidoadenosine]
amount of myelin figures with continuous agonist ([1]; MECA present throughout the two weeks of co-culture with RGCs): optimal amount of myelin figures | myelin formation versus control cultures ([1]; after eight days in co-culture): myelin was observed covering the whole length of an axon | myelin formation versus control cultures ([1]; after five days in co-culture): no significant difference | myelin formation versus control cultures ([1]; after two weeks in co-culture): the segments (internodes) form | switch from non-myelinating to myelinating phenotype: permanent or reversible ([1]; agonist 72 hours, then 5 days in culture alone, then co-culture with RGCs two weeks): permanent switch | doses that would not produce myelin segments ([1]; optic nerve myelination system dose-response): below 100 μM | rhoA expression compared to control (untreated) ([2]; day 1 of MECA treatment, n=3): two-fold reduction | rhoA expression compared to control (untreated) ([2]; other time points (6 hours, 16 hours, 2 days, 3 days)): No significant differences | differentially regulated genes, fold change >1.1 fold [3]: 2721 genes | differentially regulated genes, fold change >1.2 fold [3]: 2428 genes | differentially regulated genes, fold change >1.5 fold [3]: 1021 genes | down-regulated changes [3]: 52% | up-regulated changes [3]: 48% | differentially regulated genes, fold change >1.1 fold ([4]; p-value <0.05): 1969 genes | differentially regulated genes, fold change >1.2 fold ([4]; p-value <0.05): 1425 genes | differentially regulated genes, fold change >1.5 fold ([4]; p-value <0.05): 252 genes | down-regulated changes ([4]; p-value <0.05): 49% | up-regulated changes ([4]; p-value <0.05): 51% | total differentially regulated genes in the group comparison ([4]; p-value <0.05, 1.2 fold-change cutoff): 1339 genes | genes exclusive to cortical oligodendrocytes ([4]; p-value <0.05, 1.2 fold-change cutoff, versus ON-oligodendrocytes): 925 genes | overlap of differentially regulated genes between ON- and cortical oligodendrocytes [5]: 414 genes | total differentially regulated genes in the group comparison [5]: 1831 genes | genes exclusive to ON-oligodendrocytes ([5]; versus cortical oligodendrocytes): 1417 genes | MOG protein expression on the cell surface [6]: remained low | time MECA must be present to repress MOG surface expression ([7]; 200 μM MECA): at least 72 hours | MOG protein expression on the cell surface ([7]; after 7 days, control oligodendrocytes up-regulated MOG): remained low | concentrations insufficient to repress MOG surface expression ([7]; continuous incubation, surface label on day 7): below 100 μM

Nc1ncnc2c1ncn2[C@@H]1O[C@H](CO)[C@@H](O)[C@H]1O [adenosine]
adenosine responsiveness as measured by percentage of myelination ([1]; early versus late stage of oligodendrocyte differentiation): more responsive to adenosine at the early stage of differentiation | oligodendrocytes establishing segments of myelin on individual axons ([1]; in the presence of adenosine or ADORA1 agonist, co-culture grown two weeks, control devoid of myelin segments): approximately 90% | amount of myelin observed [8]: increased the amount of myelin observed
